Assay results taken from the NIST ThermoML archive (doi:10.1021/je800925v).

Test: xn = mol fraction of the nth substance listed
Details: Liquid

CCCCCC [hexane] + CCO
Details | mass density [kg/m3] | viscosity [mPa·s]
285.65 K, x2 = 0.6 | 721.5 | 0.629
285.65 K, x2 = 0.701 | 733 | 0.7257
285.65 K, x2 = 0.793 | 749.5 | 0.8754
285.65 K, x2 = 0.901 | 770.4 | 1.085
288.15 K, x2 = 0.101 | 675.2 | 0.3215
288.15 K, x2 = 0.198 | 680.9 | 0.346
288.15 K, x2 = 0.302 | 688.3 | 0.383
288.15 K, x2 = 0.401 | 698.1 | 0.4239
288.15 K, x2 = 0.496 | 707.9 | 0.5159
288.15 K, x2 = 0.6 | 719.3 | 0.6052
288.15 K, x2 = 0.701 | 730.8 | 0.6967
288.15 K, x2 = 0.793 | 747.3 | 0.8384
288.15 K, x2 = 0.901 | 768.2 | 1.036
290.65 K, x2 = 0.101 | 672.8 | 0.3147
290.65 K, x2 = 0.198 | 678.6 | 0.3366
290.65 K, x2 = 0.302 | 686 | 0.3728
290.65 K, x2 = 0.401 | 695.8 | 0.433
290.65 K, x2 = 0.496 | 705.5 | 0.498
290.65 K, x2 = 0.6 | 717 | 0.5822
290.65 K, x2 = 0.701 | 728.5 | 0.6691
290.65 K, x2 = 0.793 | 745.1 | 0.8031
290.65 K, x2 = 0.901 | 766 | 0.9898
293.15 K, x2 = 0 | 659.8 | 0.2979
293.15 K, x2 = 0.101 | 670.5 | 0.308
293.15 K, x2 = 0.198 | 676.2 | 0.3264
293.15 K, x2 = 0.302 | 683.7 | 0.3597
293.15 K, x2 = 0.401 | 693.5 | 0.3995
293.15 K, x2 = 0.496 | 703.2 | 0.4493
293.15 K, x2 = 0.6 | 714.7 | 0.5606
293.15 K, x2 = 0.701 | 726.2 | 0.643
293.15 K, x2 = 0.793 | 742.8 | 0.7696
293.15 K, x2 = 0.901 | 763.9 | 0.9463
295.65 K, x2 = 0.101 | 668.2 | 0.3016
295.65 K, x2 = 0.198 | 673.9 | 0.3161
295.65 K, x2 = 0.302 | 681.4 | 0.3499
295.65 K, x2 = 0.401 | 691.1 | 0.3949
295.65 K, x2 = 0.496 | 700.9 | 0.4437
295.65 K, x2 = 0.6 | 712.4 | 0.5401
295.65 K, x2 = 0.701 | 724 | 0.6182
295.65 K, x2 = 0.793 | 740.6 | 0.7377
295.65 K, x2 = 0.901 | 761.7 | 0.9052
298.15 K, x2 = 0 | 655.3 | 0.2865
298.15 K, x2 = 0.101 | 665.9 | 0.2953
298.15 K, x2 = 0.198 | 671.5 | 0.3049
298.15 K, x2 = 0.302 | 679 | 0.3398
298.15 K, x2 = 0.401 | 688.8 | 0.3755
298.15 K, x2 = 0.496 | – | 0.4288
298.15 K, x2 = 0.6 | 710.1 | 0.5021
298.15 K, x2 = 0.701 | 721.7 | 0.5944
298.15 K, x2 = 0.793 | 738.3 | 0.7071
298.15 K, x2 = 0.901 | 759.5 | 0.8663
